Where a SMILES comes first, the peptide text is derived from it. Bridges are numbered along the chain shown (N, C = ends).
What was measured:
Assay type in all cases: in vivo, human
[1] = Pharmacokinetic parameters of exogenous LEAP2 in healthy men (one-compartment model)
Method: Eight healthy men, recruited among participants in the placebo-controlled, crossover study, were included in an additional clinical study investigating the kinetic parameters of exogenous LEAP2. Each participant underwent a single experimental day with intravenous infusion of LEAP2 (10 min at a rate of ∼101 pmol/kg/min followed by 110 min at ∼25 pmol/kg/min) (see Figure S1B for an overview of the clinical study design). […] Fasting schedule for participants and all instructions from 48 h prior to the experimental day were similar to the placebo-controlled, crossover study. […] LEAP2 infusion was started at timepoint 0 min and discontinued after 120 min. Blood samples were drawn every 15 min from timepoint −30 to 270 min and, additionally, at timepoints 118, 122, 124, 127 and 130 min. Plasma glucose was measured bedside every 15 min from timepoint −30 to 180 min and every 30 min from timepoint 180 to 270 min with a mean concentration of 4.85 ± 0.02 mmol/L. For analytical procedures related to plasma glucose and LEAP2 concentrations, please see the section “Human plasma analyses”. Every 30 min from time −30 to 270 min, participants rated appetite-related sensations on 100 mm VAS[34] with a score (median (interquartile range)) for hunger of 72 (59–79) mm, prospective food consumption 73 (65–82) mm, satiety 22 (14–33) mm, fullness 21 (12–31) mm, comfort 78 (72–90) mm, thirst 78 (71–89) mm and nausea 3.0 (0–9.0).
We constructed and applied a pharmacokinetic model to the data using the software Monolix (Monolix version 2019R1; Lixoft SAS, Antony, France). The parameters were estimated using the Stochastic Approximation EM algorithm.[22] The one-compartment model assumed input from both endogenous LEAP2 secretion and the exogenous LEAP2 infusion assuming that LEAP2 kinetics followed a single-exponential elimination. We assumed that the endogenous production of LEAP2 was constant i.e. not suppressed during infusion of exogenous LEAP2. This model probably represents a simplification of the actual physiological LEAP2 kinetics, but the data fitted well to model predictions.

healthy men [2] = assay: Plasma acetaminophen as indirect marker of gastric emptying, crossover study; conditions: healthy men n = 20, iv LEAP2 ~25 pmol/kg/min
Excerpt: (§1) The infusion was terminated when participants had finished eating.
For analysis of plasma glucose, blood was distributed in fluoride heparin-coated tubes, centrifuged immediately for 30 s (12,100 g, room temperature) and measured bedside by the glucose oxidase method (YSI 2900 Biochemistry Analyzer; YSI Incorporated, Yellow Springs, Ohio, USA). For analysis of LEAP2, blood was collected in chilled K3EDTA tubes each containing 250 KIU of aprotinin. For analysis of acyl ghrelin, blood was collected in chilled K2EDTA tubes added 20 μL pefabloc (100 mg/mL; Merck Millipore, Burlington, Massachusetts, USA). Subsequently, pefabloc-treated plasma was acidified with HCl (12.5 μL 2M HCl per 500 μL plasma; Merck Millipore, Burlington, Massachusetts, USA). For analysis of glucagon, blood was collected in K2EDTA tubes. For analysis of GH, insulin, C-peptide, free fatty acids, glycerol, triglycerides and acetaminophen (paracetamol), blood was collected in tubes with lithium and heparin. All tubes were immediately cooled on ice, centrifuged for 15 min (2,000 g, 4°C) and stored at −80°C until analysis. LEAP2 concentrations were determined by an in-house radioimmunoassay directed against the N-terminal part of LEAP2. […] The precision and accuracy of the assay were evaluated based on European Medicines Agency's guidelines for bioanalytical assay validation. […] Due to supply chain disruptions from the COVID-19 pandemic, acyl ghrelin was only measured in plasma samples at timepoints 0, 60, 105, 165 and 255 min. […] Plasma GH was measured by Immunodiagnostic system-iSYS assay (IS-3700; IDS Limited, Boldon, UK). […] Glucagon was measured using a C-terminal directed antiserum (code number 4305) measuring glucagon of pancreatic origin as previously described.[40] […] Plasma insulin and C-peptide were measured using a two-sided electrochemiluminescence immunoassay (Atellica IM Analyzer; Siemens Healthcare, Ballerup, Denmark). Plasma triglycerides and acetaminophen were analyzed by spectrophotometric methods following enzymatic hydrolysis and oxidation (Siemens Atellica CH 930; Siemens Healthcare, Ballerup, Denmark). […]

healthy men [3] = assay: Plasma glucagon during LEAP2 infusion, crossover study; conditions: mean ± SEM
Excerpt: as §1
(§2) For analysis of plasma glucose, blood was distributed in fluoride heparin-coated tubes, centrifuged immediately for 30 s (12,100 g, room temperature) and measured bedside by the glucose oxidase method (YSI 2900 Biochemistry Analyzer; YSI Incorporated, Yellow Springs, Ohio, USA). For analysis of LEAP2, blood was collected in chilled K3EDTA tubes each containing 250 KIU of aprotinin. For analysis of acyl ghrelin, blood was collected in chilled K2EDTA tubes added 20 μL pefabloc (100 mg/mL; Merck Millipore, Burlington, Massachusetts, USA). Subsequently, pefabloc-treated plasma was acidified with HCl (12.5 μL 2M HCl per 500 μL plasma; Merck Millipore, Burlington, Massachusetts, USA). For analysis of glucagon, blood was collected in K2EDTA tubes. For analysis of GH, insulin, C-peptide, free fatty acids, glycerol, triglycerides and acetaminophen (paracetamol), blood was collected in tubes with lithium and heparin. All tubes were immediately cooled on ice, centrifuged for 15 min (2,000 g, 4°C) and stored at −80°C until analysis. LEAP2 concentrations were determined by an in-house radioimmunoassay directed against the N-terminal part of LEAP2. LEAP-2 was used for standards, and the tracer was a peptide composed of the 12 N-terminal amino acids of LEAP2, with a ^125I-labelled tyrosine added to the C-terminal end. The precision and accuracy of the assay were evaluated based on European Medicines Agency's guidelines for bioanalytical assay validation. […] Due to supply chain disruptions from the COVID-19 pandemic, acyl ghrelin was only measured in plasma samples at timepoints 0, 60, 105, 165 and 255 min. […] Plasma GH was measured by Immunodiagnostic system-iSYS assay (IS-3700; IDS Limited, Boldon, UK). The assay is based on chemiluminesence technology and was performed according to the manufacturer’|'s instructions. […] For analysis of glucagon, plasma was extracted in a final concentration of 70% ethanol. Glucagon was measured using a C-terminal directed antiserum (code number 4305) measuring glucagon of pancreatic origin as previously described.[40] […] Plasma insulin and C-peptide were measured using a two-sided electrochemiluminescence immunoassay (Atellica IM Analyzer; Siemens Healthcare, Ballerup, Denmark). Plasma triglycerides and acetaminophen were analyzed by spectrophotometric methods following enzymatic hydrolysis and oxidation (Siemens Atellica CH 930; Siemens Healthcare, Ballerup, Denmark). Plasma concentrations of free fatty acids and glycerol were determined by enzymatic methods modified to run on a COBAS 6000 automatic analyzer (Roche, Rødovre, Denmark) using a NEFA-HR assay (Wako Chemicals, Neuss, Germany) and glycerol assay (Randox Laboratories, Crumlin, UK), respectively.
(§3) Unless otherwise stated, results are presented as mean ± SEM. Baseline values were calculated as a mean of timepoints −35, −10 and 0 min or, when only available −10 and 0 min. Baseline values for the postprandial period were calculated as a mean of timepoint 60 min. Calculations of AUC were based on the trapezoidal rule. AUC values are reported for the period 0 to 255 min. To assess the fasting and postprandial periods separately, AUC values are reported for the periods 0 to 60 min and 60 to 255 min, respectively. Student’s paired t test was used to test for differences in baseline, peak, time to peak, AUC and mean values and ad libitum food intake in men.

healthy men [4] = assay: Plasma insulin, C-peptide and C-peptide/glucose ratio during LEAP2 infusion, crossover study; conditions: mean ± SEM
Excerpt: as §1, §2, §3

[5] = 1.5 g acetaminophen in liquid mixed meal at 65 min, marker of gastric emptying, mean ± SEM
[6] = healthy men n = 20, LEAP2 day, before infusion
[7] = healthy men n = 20, iv LEAP2 ~25 pmol/kg/min, 0 to 255 min
[8] = healthy men n = 20, iv LEAP2 ~25 pmol/kg/min, fasting period
[9] = healthy men n = 20, iv LEAP2 ~25 pmol/kg/min, liquid mixed meal at 65 min
[10] = healthy men n = 20, iv LEAP2 ~25 pmol/kg/min, postprandial period
[11] = healthy men n = 20, iv LEAP2 ~25 pmol/kg/min, time = 60 min

With `CC[C@H](C)[C@@H]1NC(=O)[C@@H]2CSSC[C@@H](C(=O)N[C@@H](CO)C(=O)N[C@@H](CC(C)C)C(=O)N[C@@H](CO)C(=O)N[C@H](C(=O)N[C@@H](C)C(=O)N[C@@H](CCC(N)=O)C(=O)N[C@@H](CCC(=O)O)C(=O)O)C(C)C)NC(=O)[C@H](CCCNC(=N)N)NC(=O)[C@H](CCCNC(=N)N)NC(=O)[C@H](CCCCN)NC(=O)[C@H](CCCNC(=N)N)NC(=O)[C@H](CSSC[C@H](NC(=O)[C@H](CO)NC(=O)[C@H](C)NC(=O)CNC(=O)[C@@H](NC(=O)[C@@H]3CCCN3C(=O)[C@H](CCCNC(=N)N)NC(=O)[C@H](CC(C)C)NC(=O)[C@H](CO)NC(=O)[C@@H](NC(=O)CNC(=O)[C@H](CCCNC(=N)N)NC(=O)[C@H](Cc3c[nH]c4ccccc34)NC(=O)[C@H](Cc3ccccc3)NC(=O)[C@@H]3CCCN3C(=O)[C@@H](NC(=O)[C@@H](N)CCSC)[C@@H](C)O)C(C)C)[C@@H](C)CC)C(=O)N[C@@H](CCCNC(=N)N)C(=O)N[C@@H](CC(=O)O)C(=O)N[C@@H](CC(=O)O)C(=O)N[C@@H](CO)C(=O)N[C@@H](CCC(=O)O)C(=O)N2)NC(=O)[C@H](CC(C)C)NC(=O)[C@H](CCCNC(=N)N)NC(=O)[C@H]([C@@H](C)O)NC1=O` [LEAP2, liver-expressed antimicrobial peptide 2] (H-MTPFWRGVSLRPIGASCRDDSECITRLCRKRRCSLSVAQE-OH; disulfide 17-28, 23-33 (inferred); N-terminus and C-terminus assumed) the “half-life of LEAP2” value ([1]; healthy men n = 8, iv 10 min at ~101 pmol/kg/min then 110 min at ~25 pmol/kg/min, plasma, radioimmunoassay, one-compartment model (Monolix)) was ~9 min, the “endogenous production rate of LEAP2” value ([1]; healthy men n = 8, one-compartment model assuming constant endogenous production) was 1.9 ± 0.14 nmol/min and the Vd ([1]; male, human, plasma, healthy men n = 8, iv 10 min at ~101 pmol/kg/min then 110 min at ~25 pmol/kg/min, 150-min wash-out, one-compartment model (Monolix), read-out: volume of distribution of LEAP2) was 14 ± 5.3 L. For the same compound, the clearance ([1]; male, human, plasma, healthy men n = 8, iv 10 min at ~101 pmol/kg/min then 110 min at ~25 pmol/kg/min, one-compartment model (Monolix), read-out: metabolic clearance rate of LEAP2) was 860 ± 170 mL/min, the half-life ([1]; male, human, healthy men n = 8, iv 10 min at ~101 pmol/kg/min then 110 min at ~25 pmol/kg/min, plasma, radioimmunoassay, one-compartment model (Monolix)) was 9.1 ± 2.5 min and the “Acetaminophen Peak” value (healthy men [2]; [5]) was 65.1 ± 2.52 µmol/L. The “Acetaminophen Time to peak” value (healthy men [2]; [5]) was 209 ± 6.34 min, the “gastric emptying rate of a liquid mixed meal” value (healthy men [2]; by plasma acetaminophen, vs placebo) was “does not alter gastric emptying rate” and the “Glucagon Baseline” value (healthy men [3]; [6]) was 6.57 ± 0.76 pmol/L. For the same compound, the “Glucagon AUC” value (healthy men [3]; [7]) was 2.26 ± 0.20 nmol·min/L, the “Glucagon AUC0–60 min” value (healthy men [3]; [8]) was 0.446 ± 0.044 nmol·min/L and the “Glucagon Peak” value (healthy men [3]; [9]) was 13.0 ± 0.94 pmol/L. The “Glucagon Time to peak” value (healthy men [3]; [9]) was 116 ± 12.5 min, the “Glucagon AUC60–255 min” value (healthy men [3]; [10]) was 1.82 ± 0.17 nmol·min/L and the “Glucagon Postprandial baseline” value (healthy men [3]; [11]) was 7.35 ± 0.82 pmol/L. For the same compound, the “C-peptide Baseline” value (healthy men [4]; [6]) was 360 ± 21.4 pmol/L, the “Insulin Baseline” value (healthy men [4]; [6]) was 36.4 ± 1.70 pmol/L and the “C-peptide AUC” value (healthy men [4]; [7]) was 218 ± 11.7 nmol·min/L. The “Insulin AUC” value (healthy men [4]; [7]) was 33.8 ± 2.63 nmol·min/L, the “C-peptide AUC0–60 min” value (healthy men [4]; [8]) was 22.5 ± 1.18 nmol·min/L and the “Insulin AUC0–60 min” value (healthy men [4]; [8]) was 2.39 ± 0.09 nmol·min/L. For the same compound, the “C-peptide Peak” value (healthy men [4]; [9]) was 1,524 ± 106 pmol/L, the “C-peptide Time to peak” value (healthy men [4]; [9]) was 136 ± 9.01 min and the “Insulin Peak” value (healthy men [4]; [9]) was 347 ± 38.6 pmol/L. The “Insulin Time to peak” value (healthy men [4]; [9]) was 110 ± 6.28 min, the “C-peptide AUC60–255 min” value (healthy men [4]; [10]) was 196 ± 11.2 nmol·min/L and the “Insulin AUC60–255 min” value (healthy men [4]; [10]) was 31.5 ± 2.60 nmol·min/L. For the same compound, the “C-peptide Postprandial baseline” value (healthy men [4]; [11]) was 365 ± 20.2 pmol/L and the “Insulin Postprandial baseline” value (healthy men [4]; [11]) was 38.6 ± 2.09 pmol/L.

Reference: article PMC9043997, “LEAP2 reduces postprandial glucose excursions and ad libitum food intake in healthy men” (Cell Reports Medicine, 2022)
